Counter-ions that a name gives are not always drawn.
What was measured:
IDO in A431 cells = biological target: T1, IDO in A431 cells (Homo sapiens, UniProt P14902); experiment: IDO cell-based assay, kynurenine production in IFN-γ stimulated A431 cells; conditions: A-431, 24 h; final concentration of the compound 10 μM; rate relative to culture without compound
T1 construct: endogenous in cells; host or cells: A431 cells, IFN-γ stimulated
In short: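 A431 cells were cultured 24 h, then preincubated 1 h with compound in medium containing 178 μM L-tryptophan, and stimulated with IFN-γ (diluted to 100 ng/mL before addition) for 24 h. Kynurenine was measured by p-dimethylbenzaldehyde absorbance at 460 nm, background-subtracted, and expressed as % production versus no-compound control.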

[1] = biological target: rhIDO (recombinant human IDO) (Homo sapiens, UniProt P14902); experiment: Enzyme assay using rhIDO (rate of kynurenine production); type: biochemical; conditions: 2 h; final concentration of the compound 10 μM; rate relative to reaction without compound; read-out: rhIDO-mediated kynurenine production
rhIDO (recombinant human IDO), sequence (P14902 whole entry): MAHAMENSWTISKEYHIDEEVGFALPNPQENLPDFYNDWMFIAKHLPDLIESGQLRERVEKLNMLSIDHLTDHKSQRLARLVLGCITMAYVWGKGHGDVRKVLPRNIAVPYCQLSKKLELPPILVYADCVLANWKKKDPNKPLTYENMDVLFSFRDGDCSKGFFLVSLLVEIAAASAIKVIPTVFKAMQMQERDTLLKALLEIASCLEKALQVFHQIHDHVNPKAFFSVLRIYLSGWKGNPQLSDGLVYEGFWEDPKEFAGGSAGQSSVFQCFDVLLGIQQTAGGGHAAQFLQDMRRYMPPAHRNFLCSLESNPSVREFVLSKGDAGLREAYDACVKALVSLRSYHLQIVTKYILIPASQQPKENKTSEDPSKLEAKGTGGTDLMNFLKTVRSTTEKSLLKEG
In short: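 rhIDO preincubated with compound 10 min at 37 °C in phosphate buffer with ascorbate, methylene blue and catalase; started with 2 mM tryptophan solution (stock) and run 120 min at 37 °C. Stopped with TCA and heated to convert N-formylkynurenine; kynurenine read at 490 nm after p-dimethylbenzaldehyde, background-subtracted, as % of no-compound control.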

[2] = biological target: rhTDO (recombinant human TDO) (Homo sapiens, UniProt P48775); experiment: Enzyme assay using rhTDO (rate of kynurenine production); type: biochemical; conditions: 2 h; final concentration of the compound 10 μM; rate relative to reaction without compound; read-out: rhTDO-mediated kynurenine production
rhTDO (recombinant human TDO), sequence (P48775 whole entry): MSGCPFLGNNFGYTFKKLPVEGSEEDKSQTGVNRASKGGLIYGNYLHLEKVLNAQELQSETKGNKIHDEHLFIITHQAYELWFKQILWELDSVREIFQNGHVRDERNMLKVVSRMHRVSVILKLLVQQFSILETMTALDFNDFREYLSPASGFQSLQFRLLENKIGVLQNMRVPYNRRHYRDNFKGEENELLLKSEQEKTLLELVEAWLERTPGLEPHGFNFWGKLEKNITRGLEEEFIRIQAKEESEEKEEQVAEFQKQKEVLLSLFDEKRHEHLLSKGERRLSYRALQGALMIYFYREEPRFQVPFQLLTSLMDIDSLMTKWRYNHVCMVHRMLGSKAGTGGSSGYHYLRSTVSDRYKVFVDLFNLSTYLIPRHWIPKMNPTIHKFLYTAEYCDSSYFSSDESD
In short: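 Kynurenine output, as percent of untreated control after background subtraction, read at 490 nm with p-dimethylbenzaldehyde following TCA quench and 15 min heating at 50 °C. Reaction: rhTDO with compound, 10 min preincubation then 120 min at 37 °C, started by 20 mM tryptophan stock, in phosphate/ascorbate/methylene blue/catalase.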

TDO in A172 cells = biological target: T2, TDO in A172 cells (Homo sapiens, UniProt P48775); experiment: TDO cell-based assay, kynurenine production in A172 cells; conditions: A 172; final concentration of the compound 10 μM; rate relative to culture without compound
T2 construct: endogenous in cells; host or cells: A172 cells
T2 sequence (P48775 whole entry): as above
In short: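 A172 cells were preincubated with compound for 1 h, then given L-tryptophan (final 524 μM) for 24 h at 37 °C. Kynurenine was read at 460 nm after p-dimethylbenzaldehyde/TCA reagent, background-subtracted, and expressed as % of no-compound production.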

T1 sequence (P14902 whole entry): as the sequence (P14902 whole entry) above

SMILES: N#Cc1ccc(CNC(=O)c2ncccc2CSC(=N)N)cc1 [Compound 99, (2-((4-Cyanobenzyl)carbamoyl)pyridin-3-yl)methyl carbamimidothioate hydrobromide]
- remaining activity at 10 µM (IDO in A431 cells): 102%
- remaining activity at 10 µM [1]: 96%
- remaining activity at 10 µM [2]: 75%
- remaining activity at 10 µM (TDO in A172 cells): 106%

SMILES: CNC(=O)c1cccnc1CSC(=N)N [Compound 100, (3-(Methylcarbamoyl)pyridin-2-yl)methyl carbamimidothioate hydrobromide]
- remaining activity at 10 µM (IDO in A431 cells): 93%
- remaining activity at 10 µM [1]: 88%
- remaining activity at 10 µM [2]: 84%
- remaining activity at 10 µM (TDO in A172 cells): 123%

SMILES: N#Cc1ccc(CNC(=O)c2ncccc2CS/C(N)=N/c2ccc(F)c(Cl)c2)cc1 [Compound 101, (2-((4-Cyanobenzyl)carbamoyl)pyridin-3-yl)methyl (E)-N′-(3-chloro-4-fluorophenyl)carbamimidothioate hydrobromide]
- remaining activity at 10 µM (IDO in A431 cells): 61%
- remaining activity at 10 µM [1]: 78%
- remaining activity at 10 µM [2]: 84%
- remaining activity at 10 µM (TDO in A172 cells): 70%

SMILES: COc1ccc(CNC(=O)c2ccc(Br)cc2CSC(=N)N)cc1 [Compound 102, 5-Bromo-2-((4-methoxybenzyl)carbamoyl)benzyl carbamimidothioate hydrobromide]
- remaining activity at 10 µM (IDO in A431 cells): 112%
- remaining activity at 10 µM [1]: 97%
- remaining activity at 10 µM [2]: 58%
- remaining activity at 10 µM (TDO in A172 cells): 38%

SMILES: N#Cc1ccc(CNC(=O)c2ccccc2C[Se]C(=N)N)cc1 [Compound 104, 2-((4-Cyanobenzyl)carbamoyl)benzyl carbamimidoselenoate hydrobromide]
- remaining activity at 10 µM (IDO in A431 cells): -4%
- remaining activity at 10 µM [1]: 78%
- remaining activity at 10 µM [2]: 81%
- remaining activity at 10 µM (TDO in A172 cells): -1%

SMILES: COc1cccc(CNC(=O)c2ccc(Br)cc2CSC(=N)N)c1 [Compound 105, 5-Bromo-2-((3-methoxybenzyl)carbamoyl)benzyl carbamimidothioate hydrobromide]
- remaining activity at 10 µM (IDO in A431 cells): 107%
- remaining activity at 10 µM [1]: 98%
- remaining activity at 10 µM [2]: 68%
- remaining activity at 10 µM (TDO in A172 cells): 42%

SMILES: COc1cccc(CNC(=O)c2ccc(Br)cc2C[Se]C(=N)N)c1 [Compound 106, 5-Bromo-2-((3-methoxybenzyl)carbamoyl)benzyl carbamimidoselenoate hydrobromide]
- remaining activity at 10 µM (IDO in A431 cells): 64%
- remaining activity at 10 µM [1]: 90%
- remaining activity at 10 µM [2]: 98%
- remaining activity at 10 µM (TDO in A172 cells): 48%

SMILES: N=C(N)[Se]Cc1cc(Br)ccc1C(=O)NCC1CC1 [Compound 107, 5-Bromo-2-((cyclopropylmethyl)carbamoyl)benzyl carbamimidoselenoate hydrobromide]
- remaining activity at 10 µM (IDO in A431 cells): 44%
- remaining activity at 10 µM [1]: 97%
- remaining activity at 10 µM [2]: 103%
- remaining activity at 10 µM (TDO in A172 cells): 12%

SMILES: N=C(N)[Se]Cc1ccccc1C[Se]C(=N)N [Compound 108, 1,2-Phenylenebis(methylene) dicarbamimidoselenoate dihydrobromide]
- remaining activity at 10 µM (IDO in A431 cells): 5%
- remaining activity at 10 µM [1]: 51%
- remaining activity at 10 µM [2]: 55%
- remaining activity at 10 µM (TDO in A172 cells): 41%

SMILES: N=C(N)[Se]Cc1ccc(Cl)cc1C[Se]C(=N)N [Compound 109, (4-Chloro-1,2-phenylene)bis(methylene) dicarbamimidoselenoate dihydrobromide]
- remaining activity at 10 µM (IDO in A431 cells): 19%
- remaining activity at 10 µM [1]: 61%
- remaining activity at 10 µM [2]: 57%
- remaining activity at 10 µM (TDO in A172 cells): 63%

SMILES: N#Cc1ccc(CNC(=O)c2cc(Br)ccc2C[Se]C(=N)N)cc1 [Compound 110, 4-Bromo-2-((4-cyanobenzyl)carbamoyl)benzyl carbamimidoselenoate hydrobromide]
- remaining activity at 10 µM (IDO in A431 cells): 13%
- remaining activity at 10 µM [1]: 61%
- remaining activity at 10 µM [2]: 59%
- remaining activity at 10 µM (TDO in A172 cells): 38%

SMILES: N#Cc1ccc(CNC(=O)c2cccc(Br)c2CSC(=N)N)cc1 [Compound 111, 2-Bromo-6-((4-cyanobenzyl)carbamoyl)benzyl carbamimidothioate hydrobromide]
- remaining activity at 10 µM (IDO in A431 cells): 53%
- remaining activity at 10 µM [1]: 17%
- remaining activity at 10 µM [2]: 122%
- remaining activity at 10 µM (TDO in A172 cells): 87%

SMILES: N=C(N)[Se]Cc1nc2ccccc2nc1C[Se]C(=N)N [Compound 112, Quinoxaline-2,3-diylbis(methylene) dicarbamimidoselenoate dihydrobromide]
- remaining activity at 10 µM (IDO in A431 cells): -2%
- remaining activity at 10 µM [1]: 94%
- remaining activity at 10 µM [2]: 90%
- remaining activity at 10 µM (TDO in A172 cells): 5%

SMILES: N#Cc1ccc(CNC(=O)c2ccc(Br)cc2C[Se]C(=N)N)cc1 [Compound 113, 5-Bromo-2-((4-cyanobenzyl)carbamoyl)benzyl carbamimidoselenoate hydrobromide]
- remaining activity at 10 µM (IDO in A431 cells): 73%
- remaining activity at 10 µM [1]: 92%
- remaining activity at 10 µM [2]: 58%
- remaining activity at 10 µM (TDO in A172 cells): 44%

SMILES: N=C(N)SCc1cc(Br)ccc1C(=O)NCc1ccc(C(F)(F)F)cc1 [Compound 114, 5-Bromo-2-((4-(trifluoromethyl)benzyl)carbamoyl)benzyl carbamimidothioate hydrobromide]
- remaining activity at 10 µM (IDO in A431 cells): 17%
- remaining activity at 10 µM [1]: 98%
- remaining activity at 10 µM [2]: 36%
- remaining activity at 10 µM (TDO in A172 cells): 37%

SMILES: COCCNC(=O)c1ccc(Br)cc1CSC(=N)N [Compound 115, 5-Bromo-2-((2-methoxyethyl)carbamoyl)benzyl carbamimidothioate hydrobromide]
- remaining activity at 10 µM (IDO in A431 cells): 121%
- remaining activity at 10 µM [1]: 91%
- remaining activity at 10 µM [2]: 63%
- remaining activity at 10 µM (TDO in A172 cells): 71%

SMILES: N=C(N)SCc1cc(Br)ccc1C(=O)NCc1ccc(F)c(Cl)c1 [Compound 116, 5-Bromo-2-((3-chloro-4-fluorobenzyl)carbamoyl)benzyl carbamimidothioate hydrobromide]
- remaining activity at 10 µM (IDO in A431 cells): 92%
- remaining activity at 10 µM [1]: 85%
- remaining activity at 10 µM [2]: 21%
- remaining activity at 10 µM (TDO in A172 cells): 55%

SMILES: N=C(N)SCc1ccc(Br)cc1C(=O)NCc1ccc(Br)cc1 [Compound 117, 4-Bromo-2-((4-bromobenzyl)carbamoyl)benzyl carbamimidothioate hydrobromide]
- remaining activity at 10 µM (IDO in A431 cells): 7%
- remaining activity at 10 µM [1]: 2%
- remaining activity at 10 µM [2]: 9%
- remaining activity at 10 µM (TDO in A172 cells): 31%

SMILES: N#Cc1ccc(CNC(=O)c2cc(Br)ccc2CS/C(N)=N/c2ccc(F)c(Cl)c2)cc1 [Compound 118, 4-Bromo-2-((4-cyanobenzyl)carbamoyl)benzyl (E)-N′-(3-chloro-4-fluorophenyl)carbamimidothioate hydrobromide]
- remaining activity at 10 µM (IDO in A431 cells): 3%
- remaining activity at 10 µM [1]: 15%
- remaining activity at 10 µM [2]: 35%
- remaining activity at 10 µM (TDO in A172 cells): 20%

SMILES: N#Cc1ccc(CNC(=O)c2cc(Br)ccc2CS/C(N)=N/c2ccc(Br)cc2)cc1 [Compound 119, 4-Bromo-2-((4-cyanobenzyl)carbamoyl)benzyl (E)-N′-(4-bromophenyl)carbamimidothioate hydrobromide]
- remaining activity at 10 µM (IDO in A431 cells): 4%
- remaining activity at 10 µM [1]: 25%
- remaining activity at 10 µM [2]: 50%
- remaining activity at 10 µM (TDO in A172 cells): 12%

SMILES: Fc1ccc(CSC2=NCN(CC3CC3)CN2)c(CSC2=NCN(CC3CC3)CN2)c1 [Compound 120, 6,6′-(((4-Fluoro-1,2-phenylene)bis(methylene))bis(sulfanediyl))bis(3-(cyclopropylmethyl)-1,2,3,4-tetrahydro-1,3,5-triazine)]
- remaining activity at 10 µM (IDO in A431 cells): 14%
- remaining activity at 10 µM [1]: 41%
- remaining activity at 10 µM [2]: 8%
- remaining activity at 10 µM (TDO in A172 cells): 7%

SMILES: Fc1ccc(CSC2=NCN(CC3CCCCC3)CN2)c(CSC2=NCN(CC3CCCCC3)CN2)c1 [Compound 121, 6,6′-(((4-Fluoro-1,2-phenylene)bis(methylene))bis(sulfanediyl))bis(3-(cyclohexylmethyl)-1,2,3,4-tetrahydro-1,3,5-triazine)]
- remaining activity at 10 µM (IDO in A431 cells): 14%
- remaining activity at 10 µM [1]: 29%
- remaining activity at 10 µM [2]: 7%
- remaining activity at 10 µM (TDO in A172 cells): 11%

SMILES: N/C(=N\c1ccc(F)c(Cl)c1)SCc1ccccc1CS/C(N)=N/c1ccc(F)c(Cl)c1 [Compound 122, 1,2-Phenylenebis(methylene) (E,E)-bis(N-(3-chloro-4-fluorophenyl)carbamimidothioate) dihydrobromide]
- remaining activity at 10 µM (IDO in A431 cells): 2%
- remaining activity at 10 µM [1]: -3%
- remaining activity at 10 µM [2]: 8%
- remaining activity at 10 µM (TDO in A172 cells): 7%

SMILES: N/C(=N\c1ccc(Cl)cc1)SCc1cc(Cl)c(Cl)cc1CS/C(N)=N/c1ccc(Cl)cc1 [Compound 123, (4,5-Dichloro-1,2-phenylene)bis(methylene) (E,E)-bis(N′-(4-chlorophenyl)carbamimidothioate) dihydrobromide]
- remaining activity at 10 µM (IDO in A431 cells): 12%
- remaining activity at 10 µM [1]: -2%
- remaining activity at 10 µM [2]: 10%
- remaining activity at 10 µM (TDO in A172 cells): 4%
